In ChEMBL document CHEMBL5352416, “Benzo[b]thiophene-2-carboxamides as novel opioid receptor agonists with potent analgesic effect and reduced constipation” (Eur J Med Chem, 2022):
pEC50, pKi: −log10 of the molar value. Calls of active or inactive are those of the source. No cut-off for these calls is given here.

Experiments:
Mu-type opioid receptor [1] = target: T1, Mu-type opioid receptor (Homo sapiens, UniProt P35372); assay: Agonist activity at human mu opioid receptor expressed in CHO-K1 cells coexpressing Galpha15 assessed as increase in fluorescence of [ca2+]i measured for 1.52 sec by FLIPR calcium assay; assay type: functional, cell-based
T1 sequence (P35372 whole entry): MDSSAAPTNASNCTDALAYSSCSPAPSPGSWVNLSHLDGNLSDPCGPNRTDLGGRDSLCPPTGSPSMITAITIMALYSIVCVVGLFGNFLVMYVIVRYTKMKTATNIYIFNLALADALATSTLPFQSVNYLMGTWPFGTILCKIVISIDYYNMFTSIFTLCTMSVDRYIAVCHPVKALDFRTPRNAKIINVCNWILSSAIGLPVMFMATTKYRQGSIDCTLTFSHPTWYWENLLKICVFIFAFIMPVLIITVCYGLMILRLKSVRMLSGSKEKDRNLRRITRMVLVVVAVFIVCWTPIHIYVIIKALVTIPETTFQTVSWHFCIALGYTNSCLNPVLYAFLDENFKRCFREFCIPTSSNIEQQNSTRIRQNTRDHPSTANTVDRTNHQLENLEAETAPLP

Mu-type opioid receptor [2] = target: T1, Mu-type opioid receptor; assay: Agonist activity at human mu opioid receptor expressed in CHO-K1 cells coexpressing Galpha15 assessed as increase in fluorescence of [ca2+]i by measuring maximum efficacy measured for 1.52 sec by FLIPR calcium assay relative to control; assay type: functional, cell-based; settings: filed as agonist
Nociceptin receptor [3] = target: T2, Nociceptin receptor (Homo sapiens, UniProt P41146); assay: Agonist activity at human NOP receptor expressed in CHO-K1 cells assessed as […] beta-arrestin 2 recruitment measured after 1.5 hrs by PathHunter assay; assay type: functional, cell-based
T2 sequence (P41146 whole entry): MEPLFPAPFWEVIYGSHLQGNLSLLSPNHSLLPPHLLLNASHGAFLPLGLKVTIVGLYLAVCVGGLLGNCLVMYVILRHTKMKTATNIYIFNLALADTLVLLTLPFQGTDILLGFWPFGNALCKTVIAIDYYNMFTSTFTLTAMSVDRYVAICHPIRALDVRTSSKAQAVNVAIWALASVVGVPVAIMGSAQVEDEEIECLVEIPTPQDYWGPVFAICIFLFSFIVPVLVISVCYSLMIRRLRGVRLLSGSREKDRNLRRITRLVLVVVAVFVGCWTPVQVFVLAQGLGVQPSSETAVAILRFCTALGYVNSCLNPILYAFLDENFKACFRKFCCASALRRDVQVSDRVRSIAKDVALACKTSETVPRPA

Nociceptin receptor [4] = target: T2, Nociceptin receptor; assay: Agonist activity at human NOP receptor expressed in CHO-K1 cells assessed as decrease in intracellular cAMP level at 0.5 uM in presence of BAN ORL 24; assay type: functional, cell-based
[5] = target: T3, Delta-type opioid receptor (Homo sapiens, UniProt P41143); assay: Potency index, ratio of DADLE EC50 to test compound EC50 for agonist activity at human DOR receptor expressed in CHO-K1 cells assessed as […] beta-arrestin 2 recruitment measured after 1.5 hrs by PathHunter assay; assay type: functional, cell-based
T3 sequence (P41143 whole entry): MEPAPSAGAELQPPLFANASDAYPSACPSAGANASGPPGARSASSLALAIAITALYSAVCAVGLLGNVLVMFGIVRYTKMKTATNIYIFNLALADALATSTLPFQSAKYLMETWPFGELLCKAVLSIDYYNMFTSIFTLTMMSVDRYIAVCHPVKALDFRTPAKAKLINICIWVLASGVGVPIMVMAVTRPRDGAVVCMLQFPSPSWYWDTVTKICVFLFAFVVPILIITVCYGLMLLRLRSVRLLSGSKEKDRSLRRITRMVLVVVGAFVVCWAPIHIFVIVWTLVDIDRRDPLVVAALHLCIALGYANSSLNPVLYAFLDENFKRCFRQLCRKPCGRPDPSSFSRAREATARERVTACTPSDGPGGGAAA

Mus musculus [6] = assay: Antinociceptive activity in C57BL/6 mouse assessed as drug tolerance at 252.8 microg/kg, sc administered twice per day for 6 days and measured immediately by tail flick test; assay type: functional, organism-based; settings: dose 252.8 µg/kg, time 6.0 day
Nociceptin receptor [7] = target: T2, Nociceptin receptor; assay: Displacement of [3H]-Nociceptin from human NOP receptor expressed in CHO-K1 cells assessed as inhibition constant measured for 1 hr by liquid scintillation counter analysis; assay type: cell-based
[8] = Drug concentration in C57BL/6 mouse Intestine at 2 mg/kg, sc measured for 60 min by ICP-MS analysis; assay type: ADME, organism-based; settings: read-out: Ct
Mus musculus [9] = assay: Antinociceptive activity in thermal stimulated C57BL/6 mouse assessed as tail flick latency at 126.4 to 252.8 microg/kg, sc measured at 30 to 60 mins by tail flick test; assay type: functional, organism-based; settings: dose 126.4-252.8 µg/kg, time 30-60 min
[10] = Drug concentration in C57BL/6 mouse brain at 2 mg/kg, sc measured for 5 min by ICP-MS analysis; assay type: ADME, organism-based; settings: read-out: Ct
Mus musculus [11] = assay: Antinociceptive activity in thermal stimulated wild type C57BL/6 mouse assessed as tail flick latency at 126.4 to 252.8 microg/kg measured at 30 to 60 mins by tail flick test; assay type: functional, organism-based; settings: dose 126.4-252.8 µg/kg, time 30-60 min
Mu-type opioid receptor [12] = target: T1, Mu-type opioid receptor; assay: Agonist activity at human mu opioid receptor expressed in CHO-K1 cells assessed as […] beta-arrestin 2 recruitment measured after 1.5 hrs by PathHunter assay; assay type: functional, cell-based
Mus musculus [13] = assay: Antinociceptive activity in thermal stimulated C57BL/6 mouse assessed as drug tolerance at 126.4 to 252.8 microg/kg, sc administered twice per day for 5 days and measured immediately by tail flick test; assay type: functional, organism-based; settings: dose 126.4-252.8 µg/kg, time 5.0 day
[14] = target: T3, Delta-type opioid receptor; assay: Agonist activity at human DOR receptor expressed in CHO-K1 cells assessed as decrease in intracellular cAMP level at 0.5 uM in presence of naltrindole; assay type: functional, cell-based
Nociceptin receptor [15] = target: T2, Nociceptin receptor; assay: Agonist activity at human NOP receptor expressed in CHO-K1 cells assessed as decrease in intracellular cAMP level measured after 1 hr by LANCE ultra cAMP assay; assay type: functional, cell-based
Mus musculus [16] = assay: Antinociceptive activity in thermal stimulated MOR-knockout C57BL/6 mouse assessed as delay in flick tail at 252.8 microg/kg, sc measured after 30 mins by tail flick test; assay type: functional, organism-based; settings: dose 252.8 µg/kg
Mus musculus [17] = assay: Antinociceptive activity in CFA-induced mechanical allodynia MOR knockout C57BL/6 mouse model at 252.8 microg/kg, sc administered twice daily pretreated with CFA for 2 days followed by compound addition and measured at 3 to 7 days by von frey test; assay type: functional, organism-based; settings: dose 252.8 µg/kg, time 3-7 day
Mus musculus [18] = assay: Antinociceptive activity in C57BL/6 mouse at 252.8 microg/kg, sc measured after 5 days in presence of BAN ORL 24 by tail flick test; assay type: functional, organism-based; settings: dose 252.8 µg/kg, time 5.0 day
Mus musculus [19] = assay: Induction of motivational effect in C57BL/6 mouse assessed as increase in reward behaviour at 126.4 to 252.8 microg/kg, sc administered for 4 days and measured on day 6 by CPP analysis; assay type: functional, organism-based; settings: dose 126.4-252.8 µg/kg, time 6.0 day
[20] = Drug concentration in C57BL/6 mouse Intestine at 2 mg/kg, sc measured for 5 min by ICP-MS analysis; assay type: ADME, organism-based; settings: read-out: Ct
Mus musculus [21] = assay: Antinociceptive activity in thermal stimulated sc dosed C57BL/6 mouse measured at 30 to 180 mins by tail flick test; assay type: functional; settings: time 30-180 min
[22] = target: T3, Delta-type opioid receptor; assay: Agonist activity at human DOR receptor expressed in CHO-K1 cells assessed as […] beta-arrestin 2 recruitment measured after 1.5 hrs by PathHunter assay; assay type: functional, cell-based
Mus musculus [23] = assay: Antinociceptive activity in thermal stimulated C57BL/6 mouse at 126.4 to 252.8 microg/kg, sc measured at 30 to 180 mins by tail flick test; assay type: functional, organism-based; settings: dose 126.4-252.8 µg/kg, time 30-180 min
Mu-type opioid receptor [24] = target: T1, Mu-type opioid receptor; assay: Agonist activity at human mu opioid receptor expressed in CHO-K1 cells assessed as decrease in intracellular cAMP level measured after 1 hr by LANCE ultra cAMP assay; assay type: functional, cell-based
[25] = Drug concentration in C57BL/6 mouse brain at 2 mg/kg, sc measured for 60 min by ICP-MS analysis; assay type: ADME, organism-based; settings: read-out: Ct
Mu-type opioid receptor [26] = target: T1, Mu-type opioid receptor; assay: Agonist activity at human mu opioid receptor expressed in CHO-K1 cells assessed as decrease in intracellular cAMP level at 0.5 uM in presence of naltrexone; assay type: functional, cell-based; settings: filed as agonist
[27] = target: T3, Delta-type opioid receptor; assay: Agonist activity at human DOR receptor expressed in CHO-K1 cells assessed as decrease in intracellular cAMP level measured after 1 hr by LANCE ultra cAMP assay; assay type: functional, cell-based
Mu-type opioid receptor [28] = target: T1, Mu-type opioid receptor; assay: Displacement of [3H]-Diprenorphine from human MOR receptor expressed in CHO-K1 cells assessed as inhibition constant measured for 1 hr by liquid scintillation counter analysis; assay type: cell-based
Mus musculus [29] = assay: Antinociceptive activity in C57BL/6 mouse at 252.8 microg/kg, sc measured after 5 days in presence of naltrindole by tail flick test; assay type: functional, organism-based; settings: dose 252.8 µg/kg, time 5.0 day
[30] = Drug concentration in C57BL/6 mouse plasma at 2 mg/kg, sc measured for 5 min by ICP-MS analysis; assay type: ADME, organism-based
Mus musculus [31] = assay: Antinociceptive activity in CFA-induced mechanical allodynia C57BL/6 mouse model at 126.4 to 252.8 microg/kg, sc pretreated with CFA for 2 days followed by compound addition and measured after 1 day by von frey test; assay type: functional, organism-based; settings: dose 126.4-252.8 µg/kg
Mus musculus [32] = assay: Antinociceptive activity in morphine tolerant C57BL/6 mouse at 252.8 microg/kg, sc administered twice per day for 6 days and measured after 30 min by tail flick test; assay type: functional, organism-based; settings: dose 252.8 µg/kg
[33] = target: T3, Delta-type opioid receptor; assay: Displacement of [3H]-Diprenorphine from human DOR receptor expressed in CHO-K1 cells assessed as inhibition constant measured for 1 hr by liquid scintillation counter analysis; assay type: cell-based
[34] = Drug concentration in C57BL/6 mouse plasma at 2 mg/kg, sc measured for 60 min by ICP-MS analysis; assay type: ADME, organism-based
Nociceptin receptor [35] = target: T2, Nociceptin receptor; assay: Potency index, ratio of Nociceptin EC50 to test compound EC50 for agonist activity at human NOP receptor expressed in CHO-K1 cells assessed as […] beta-arrestin 2 recruitment measured after 1.5 hrs by PathHunter assay; assay type: functional, cell-based

Structure (SMILES): CN1CCc2ccccc2C1CNC(=O)c1ccc(Cl)c(Cl)c1 (stereo unspecified)
- pEC50 (Mu-type opioid receptor [1]): 9.56
- Emax (Mu-type opioid receptor [2]): 100%

Structure (SMILES): Cc1cccc(C(CNC(=O)c2cc3ccccc3s2)N(C)C)c1 (stereo unspecified)
- pEC50 (Mu-type opioid receptor [1]): 5.39
- Emax (Mu-type opioid receptor [2]): 116%

Structure (SMILES): CN(C)C(CNC(=O)c1cc2ccccc2s1)c1ccccc1 (stereo unspecified)
- pEC50 (Mu-type opioid receptor [1]): 5.41
- Emax (Mu-type opioid receptor [2]): 99.5%

Structure (SMILES): Cc1ccc(C(CNC(=O)c2cc3ccccc3s2)N(C)C)cc1 (stereo unspecified)
- pEC50 (Nociceptin receptor [3]): 4.35
- Activity (Nociceptin receptor [4]): inactive
- Ratio EC50 [5]: 233
- Activity (Mus musculus [6]): Active
- pKi (Nociceptin receptor [7]): 6.19
- concentration at 1 h [8]: 936 ng/mL
- Activity (Mus musculus [9]): Active
- concentration at 5 min [10]: 1110 ng/mL
- Activity (Mus musculus [11]): Active
- pEC50 (Mu-type opioid receptor [12]): 7.52
- Activity (Mus musculus [13]): Active
- pEC50 (Mu-type opioid receptor [1]): 5.09
- Activity [14]: inactive
- pEC50 (Nociceptin receptor [15]): 7.66
- Activity (Mus musculus [16]): Active
- Activity (Mus musculus [17]): Active
- Activity (Mus musculus [18]): Active
- Activity (Mus musculus [19]): Active
- concentration at 5 min [20]: 515 ng/mL
- Activity (Mus musculus [21]): Dose-Dependent Effect
- ED50 (Mus musculus [21]): 127 mg/kg
- pEC50 [22]: < 5.00
- Activity (Mus musculus [23]): Active
- pEC50 (Mu-type opioid receptor [24]): 9.64
- concentration at 1 h [25]: 2030 ng/mL
- Activity (Mu-type opioid receptor [26]): Active
- pEC50 [27]: 8.67
- pKi (Mu-type opioid receptor [28]): 9.52
- Activity (Mus musculus [29]): Active
- Emax (Mu-type opioid receptor [2]): 114%
- concentration at 5 min [30]: 191 ng/mL
- Activity (Mus musculus [31]): Active
- Activity (Mus musculus [32]): Active
- pKi [33]: < 9.00
- concentration at 1 h [34]: 252 ng/mL
- Ratio EC50 (Nociceptin receptor [35]): 2200

Structure (SMILES): Cc1ccc2cc(C(=O)NCC(c3ccccc3Cl)N(C)C)sc2c1 (stereo unspecified)
- pEC50 (Mu-type opioid receptor [1]): 5.72
- Emax (Mu-type opioid receptor [2]): 58.4%

Structure (SMILES): CN(C)C(CNC(=O)c1cc2ccccc2s1)c1ccc(F)cc1 (stereo unspecified)
- pEC50 (Mu-type opioid receptor [1]): 8.19
- Emax (Mu-type opioid receptor [2]): 117%

Structure (SMILES): CN(C)C(CNC(=O)c1cc2ccccc2s1)c1cccc(Cl)c1 (stereo unspecified)
- pEC50 (Mu-type opioid receptor [1]): 5.64
- Emax (Mu-type opioid receptor [2]): 130%

Structure (SMILES): CN(C)C(CNC(=O)c1cc2ccccc2s1)c1cccc(F)c1 (stereo unspecified)
- pEC50 (Mu-type opioid receptor [1]): 5.83
- Emax (Mu-type opioid receptor [2]): 106%

Structure (SMILES): Cc1ccc2c(Cl)c(C(=O)NCC(c3ccccc3Cl)N(C)C)sc2c1 (stereo unspecified)
- pEC50 (Mu-type opioid receptor [1]): 5.59
- Emax (Mu-type opioid receptor [2]): 55%

Structure (SMILES): CN(C)C(CNC(=O)c1cc2ccccc2s1)c1ccc(Br)cc1 (stereo unspecified)
- pEC50 (Mu-type opioid receptor [1]): 6.82
- Emax (Mu-type opioid receptor [2]): 103%

Structure (SMILES): Cc1ccc2c(Cl)c(C(=O)NCC(c3ccccc3)N(C)C)sc2c1 (stereo unspecified)
- pEC50 (Mu-type opioid receptor [1]): 5.79
- Emax (Mu-type opioid receptor [2]): 73.6%
